Reference: patent US20250206760A1, “NITROGEN-CONTAINING HETEROCYCLIC COMPOUND, PREPARATION METHOD THEREFOR, AND PHARMACEUTICAL APPLICATION THEREOF” (Jiangsu Hengrui Pharmaceuticals Co., Ltd., priority 2022, published 2025)

Experiments:
[1] = system: HER2 A775_G776insYVMA mutant Ba/F3; experiment: Ba/F3 cell proliferation assay, HER2 A775_G776insYVMA mutant; type: cell-based; details: Mus musculus, BaF3, 72 h, Celltiter-Glo cell viability; for GI50: read-out: HER2 A775_G776 ins YVMA/BaF3 GI50; for Emax: read-out: HER2 A775_G776 ins YVMA/BaF3 Imax %
Method: (§1) EGFR wild-type Ba/F3 cells (Cobioer, Cat. No. CBP73110) in the logarithmic growth phase were seeded into a 96-well plate at 2.5×10^3 cells/[…] in a growth medium, and HER2 wild-type Ba/F3 cells (Cobioer, Cat. No. CBP73110) or HER2 A775_G776insYVMA mutant Ba/F3 (Cobioer, Cat. No. CBP73184) in the logarithmic growth phase were seeded into a 96-well plate at 5×10^3 cells/100 μL in a growth medium.
(§2) The plates were placed in a cell incubator at 37° C. overnight. The compound diluted in 3-fold gradient with a medium was added to the plates at 100 μL/well the next day. All treatments were performed in triplicate. The plates were cultured in the cell incubator at 37° C. for another 72 h. Celltiter-Glo Luminescent cell viability assay was performed.
(§3) The cell proliferation rate corresponding to each well was calculated according to the following formula: proliferation %=(test compound well G3-GO average value)/(DMSO control well G3 average value -GO average value)×100. According to the corresponding proliferation rate and concentration of each gradient concentration well, a gradient curve of cell proliferation was fitted using Prism Graphpad software, and GI50 (GI50 is defined as the concentration of a compound corresponding to the cell proliferation inhibition rate of 50%) of the compound was calculated.

[2] = system: HER2 wild-type Ba/F3 cells; experiment: Ba/F3 cell proliferation assay, HER2 wild-type; type: cell-based; details: Mus musculus, BaF3, 72 h, Celltiter-Glo cell viability; for GI50: read-out: HER2 WT/BaF3 GI50; for Emax: read-out: HER2 WT/BaF3 Imax %
Method: as §1, §2, §3

C=CC(=O)N1[C@@H]2CC[C@H]1C[C@H](Oc1cc3c(Nc4ccc(Oc5ccn6ncnc6c5)c(C)c4)ncnc3cc1OC)C2 [Example 6, 1-(exo-3-((4-((4-([1,2,4]Triazolo[1,5-a]pyridin-7-yloxy)-3-methylphenyl)amino)-7-methoxyquinazolin-6-yl)oxy)-8-azabicyclo[3.2.1]octan-8-yl)prop-2-en-1-one]
GI50 [1]: 21.4 nM
Emax [1]: 100%
GI50 [2]: 25.2 nM
Emax [2]: 100%

C=CC(=O)N1[C@@H]2CC[C@H]1C[C@H](Oc1ccc3ncnc(Nc4ccc(Oc5cc6ncnn6cn5)c(C)c4)c3c1)C2 [Example 8, 1-(exo-3-((4-((4-([1,2,4]Triazolo[1,5-c]pyrimidin-7-yloxy)-3-methylphenyl)amino)quinazolin-6-yl)oxy)-8-azabicyclo[3.2.1]octan-8-yl)prop-2-en-1-one]
GI50 [1]: 15.7 nM
Emax [1]: 100%
GI50 [2]: 6.3 nM
Emax [2]: 100%

C=CC(=O)N1[C@@H]2CC[C@H]1C[C@H](Oc1ccc3ncnc(Nc4ccc(Oc5ccn6ncnc6c5)c(C)c4)c3c1)C2 [Example 9, 1-(exo-3-((4-((4-([1,2,4]Triazolo[1,5-a]pyridin-7-yloxy)-3-methylphenyl)amino)quinazolin-6-yl)oxy)-8-azabicyclo[3.2.1]octan-8-yl)prop-2-en-1-one]
GI50 [1]: 13.8 nM
Emax [1]: 100%
GI50 [2]: 13.5 nM
Emax [2]: 100%

C=CC(=O)N1[C@@H]2CC[C@H]1C[C@H](Oc1cc3c(Nc4ccc(Oc5ccn6ncnc6c5)c(C)c4F)ncnc3cc1OC)C2 [Example 13, 1-(exo-3-((4-((4-([1,2,4]Triazolo[1,5-a]pyridin-7-yloxy)-2-fluoro-3-methylphenyl)amino)-7-methoxyquinazolin-6-yl)oxy)-8-azabicyclo[3.2.1]octan-8-yl)prop-2-en-1-one]
GI50 [1]: 8.2 nM
Emax [1]: 100%
GI50 [2]: 4.8 nM
Emax [2]: 100%

C=CC(=O)N1[C@@H]2CC[C@H]1C[C@H](Oc1cc3c(Nc4ccc(Oc5ccc6c(c5)ncn6C)c(C)c4F)ncnc3cc1OC)C2 [Example 15, 1-(exo-3-((4-((2-Fluoro-3-methyl-4-((1-methyl-1H-benzo[d]imidazol-5-yl)oxy)phenyl)amino)-7-methoxyquinazolin-6-yl)oxy)-8-azabicyclo[3.2.1]octan-8-yl)prop-2-en-1-one]
GI50 [1]: 19.4 nM
Emax [1]: 100%
GI50 [2]: 14.9 nM
Emax [2]: 100%

C=CC(=O)N1[C@@H]2CC[C@H]1C[C@@H](Oc1cc3c(Nc4ccc(Oc5ccn6ncnc6c5)c(C)c4F)ncnc3cc1OCC)C2 [Example 17, 1-(endo-3-((4-((4-([1,2,4]Triazolo[1,5-a]pyridin-7-yloxy)-2-fluoro-3-methylphenyl)amino)-7-ethoxyquinazolin-6-yl)oxy)-8-azabicyclo[3.2.1]octan-8-yl)prop-2-en-1-one]
GI50 [1]: 13.9 nM
Emax [1]: 100%
GI50 [2]: 5.1 nM
Emax [2]: 100%

C=CC(=O)N1[C@@H]2CC[C@H]1C[C@H](Oc1ccc3ncnc(Nc4ccc(Oc5ccc6c(c5)ncn6C)c(C)c4F)c3c1)C2 [Example 19, 1-(exo-3-((4-((2-Fluoro-3-methyl-4-((1-methyl-1H-benzo[d]imidazol-5-yl)oxy)phenyl)amino)quinazolin-6-yl)oxy)-8-azabicyclo[3.2.1]octan-8-yl)prop-2-en-1-one]
GI50 [1]: 27 nM
Emax [1]: 100%
GI50 [2]: 14.9 nM
Emax [2]: 100%

C=CC(=O)N1[C@@H]2CC[C@H]1C[C@H](Oc1cc3c(Nc4ccc(Oc5ccc6c(c5)ncn6C)c(C)c4F)ncnc3cn1)C2 [Example 27, 1-(exo-3-((4-((2-Fluoro-3-methyl-4-((1-methyl-1H-benzo[d]iimidazol-5-yl)oxy)phenyl)amino)pyrido[3,4-d]pyrimidin-6-yl)oxy)-8-azabicyclo[3.2.1]octan-8-yl)prop-2-en-1-one]
GI50 [2]: 12.5 nM
Emax [2]: 100%

Cc1cc(Nc2ncnc3ccc(NC4=NC(C)(C)CO4)cc23)ccc1Oc1ccn2ncnc2c1 [Tucatinib, tucatinib, reference compound]
Emax [1]: 100%
